# Test results published in patent US12145927B2 (BRISTOL-MYERS SQUIBB COMPANY, priority 2018, dated 2024).
# Biological target: T1, human IDO1 (Homo sapiens, UniProt P14902)
# T1 construct: expressed in transfected cells
# Experiment: IDO inhibition assay in human IDO1/HEK293 cells (IDO1 HEK Human)
# Type: cell-based
# Settings: HEK293 cells stably expressing human IDO1; 20 hours incubation; absorbance at 490 nm after Ehrlich reagent
# Summary of the method: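 Kynurenine output of stably IDO1-transfected HEK293 cells was measured by absorbance at 490 nm after mixing supernatant with 0.2% Ehrlich reagent, following TCA stop (0.2% final, 50° C., 30 min). Cells were incubated 20 hours with compound. Inhibition was scaled between DMSO and 500 nM reference standard.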
# T1 sequence (P14902 whole entry): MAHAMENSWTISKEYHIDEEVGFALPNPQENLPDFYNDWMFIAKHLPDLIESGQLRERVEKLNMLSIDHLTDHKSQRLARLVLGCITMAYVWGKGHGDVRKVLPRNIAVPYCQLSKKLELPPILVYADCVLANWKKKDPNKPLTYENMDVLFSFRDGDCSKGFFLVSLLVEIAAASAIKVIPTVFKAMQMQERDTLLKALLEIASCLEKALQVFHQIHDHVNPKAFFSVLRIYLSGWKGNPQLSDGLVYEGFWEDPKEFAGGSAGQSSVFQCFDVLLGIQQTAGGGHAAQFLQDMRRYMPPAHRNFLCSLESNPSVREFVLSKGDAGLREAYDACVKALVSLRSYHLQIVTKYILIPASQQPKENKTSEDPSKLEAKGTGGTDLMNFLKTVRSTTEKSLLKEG
row,SMILES,IC50 [nM]
1,"Cc1ccc(-c2nnn[nH]2)c(-c2cc(Nc3ccc(Cl)c(F)c3)c3c(c2)C(c2ccccc2)CCCO3)c1 (single isomer, unassigned) [Example 76, N-(4-chloro-3-fluorophenyl)-7-(5-methyl-2-(1H-tetrazol-5-yl)phenyl)-5-phenyl-2,3,4,5-tetrahydrobenzo[b]oxepin-9-amine]",8.3
2,"Cc1ccc(-c2nnn[nH]2)c(-c2cc(Nc3ccc(Cl)cc3)c3c(c2)C(c2ccccc2)CCCO3)c1 (single isomer, unassigned) [Example 78, N-(4-chlorophenyl)-7-(5-methyl-2-(1H-tetrazol-5-yl)phenyl)-5-phenyl-2,3,4,5-tetrahydrobenzo[b]oxepin-9-amine]",8.5
3,"Cc1ccc(-c2nnn[nH]2)c(-c2cc(Nc3ccc(OC(F)F)cc3)c3c(c2)C(c2ccccc2)CCCO3)c1 (single isomer, unassigned) [Example 79, N-(4-(difluoromethoxy)phenyl)-7-(5-methyl-2-(1H-tetrazol-5-yl)phenyl)-5-phenyl-2,3,4,5-tetrahydrobenzo[b]oxepin-9-amine]",33.5
4,"c1ccc(C2CCCOc3c(Nc4ccnc5ccnn45)cc(-c4ccccc4-c4nnn[nH]4)cc32)cc1 (single isomer, unassigned) [Example 81, N-(7-(2-(1H-tetrazol-5-yl)phenyl)-5-phenyl-2,3,4,5-tetrahydrobenzo[b]oxepin-9-yl) pyrazolo[1,5-a]pyrimidin-7-amine]",2510
5,"c1ccc(C2CCCOc3c(Nc4ccc5ccccc5n4)cc(-c4ccccc4-c4nnn[nH]4)cc32)cc1 (single isomer, unassigned) [Example 83, N-(7-(2-(1H-tetrazol-5-yl)phenyl)-5-phenyl-2,3,4,5-tetrahydrobenzo[b]oxepin-9-yl) quinolin-2-amine]",17.4
6,"C=C[C@H]1Oc2c(NC(=O)Nc3ccc(C)cc3)cc(-c3ccccc3-c3nnn[nH]3)cc2[C@@H]1c1ccccc1 (single isomer, unassigned) [Example 88, 1-((trans)-5-(2-(1H-tetrazol-5-yl)phenyl)-3-phenyl-2-vinyl-2,3-dihydrobenzofuran-7-yl)-3-(p-tolyl)urea]",105
7,"C=C[C@@H]1Oc2c(NC(=O)Nc3ccc(C)cc3)cc(-c3ccccc3-c3nnn[nH]3)cc2[C@H]1c1ccccc1 (single isomer, unassigned) [Example 89, 1-((trans)-5-(2-(1H-tetrazol-5-yl)phenyl)-3-phenyl-2-vinyl-2,3-dihydrobenzofuran-7-yl)-3-(p-tolyl)urea]",13
8,"C=C[C@H]1Oc2c(NC(=O)Nc3ccc(C)cc3)cc(-c3ccccc3-c3nnn[nH]3)cc2[C@@H]1CCC(F)(F)F (single isomer, unassigned) [Example 100, 1-((trans)-5-(2-(1H-tetrazol-5-yl)phenyl)-3-(3,3,3-trifluoropropyl)-2-vinyl-2,3-dihydrobenzofuran-7-yl)-3-(p-tolyl)urea]",21
9,"C=C[C@@H]1Oc2c(NC(=O)Nc3ccc(C)cc3)cc(-c3ccccc3-c3nnn[nH]3)cc2[C@H]1CCC(F)(F)F (single isomer, unassigned) [Example 101, 1-((trans)-5-(2-(1H-tetrazol-5-yl)phenyl)-3-(3,3,3-trifluoropropyl)-2-vinyl-2,3-dihydrobenzofuran-7-yl)-3-(p-tolyl)urea]",7.1
10,"C=C[C@H]1Oc2c(NC(=O)Nc3ccc(C)cc3)cc(-c3ccccc3-c3nnn[nH]3)cc2[C@@H]1CCC(F)(F)F (single isomer, unassigned) [Example 129, 1-((trans)-5-(2-(1H-tetrazol-5-yl)phenyl)-3-(3,3,3-trifluoropropyl)-2-vinyl-2,3-dihydrobenzofuran-7-yl)-3-(p-tolyl)urea]",16
11,"C=C[C@H]1Oc2c(NC(=O)Nc3ccc(C)cc3)cc(-c3ccccc3-c3nnn[nH]3)cc2[C@@H]1CCC(F)(F)F (single isomer, unassigned) [Example 130, 1-((trans)-5-(2-(1H-tetrazol-5-yl)phenyl)-3-(3,3,3-trifluoropropyl)-2-vinyl-2,3-dihydrobenzofuran-7-yl)-3-(p-tolyl)urea]",40
12,"O=C(Nc1ccc(C2CC2)cc1F)Nc1cc(-c2ccccc2-c2nnn[nH]2)cc2c1OCCCC2c1ccccc1 (stereo not shown) [Example 6, 1-(7-(2-(1H-tetrazol-5-yl)phenyl)-5-phenyl-2,3,4,5-tetrahydrobenzo[b]oxepin-9-yl)-3-(4-cyclopropyl-2-fluorophenyl)urea]",70
13,"Cc1ccc(NC(=O)Nc2cc(-c3ccccc3C(N)=O)cc3c2OCCCC3c2ccccc2)cc1 (stereo not shown) [Example 7, 2-(5-phenyl-9-(3-(p-tolyl)ureido)-2,3,4,5-tetrahydrobenzo[b]oxepin-7-yl)benzamide]",40.8
14,"Cc1csc(NC(=O)Nc2cc(-c3ccccc3-c3nnn[nH]3)cc3c2OCCCC3c2ccccc2)n1 (stereo not shown) [Example 12, 1-(7-(2-(1H-tetrazol-5-yl)phenyl)-5-phenyl-2,3,4,5-tetrahydrobenzo[b]oxepin-9-yl)-3-(4-methylthiazol-2-yl)urea]",1070
15,"Cc1cc(NC(=O)Nc2cc(-c3ccccc3-c3nnn[nH]3)cc3c2OCCCC3c2ccccc2)no1 (stereo not shown) [Example 15, 1-(7-(2-(1H-tetrazol-5-yl)phenyl)-5-phenyl-2,3,4,5-tetrahydrobenzo[b]oxepin-9-yl)-3-(5-methylisoxazol-3-yl)urea]",232
16,"Cc1ccc(NC(=O)Nc2cc(-c3ccccc3-c3nnn[nH]3)cc3c2OCCCC3c2ccccc2)nc1 (stereo not shown) [Example 17, 1-(7-(2-(1H-tetrazol-5-yl)phenyl)-5-phenyl-2,3,4,5-tetrahydrobenzo[b]oxepin-9-yl)-3-(5-methylpyridin-2-yl)urea]",53
17,"O=C(Nc1nc2ccccc2s1)Nc1cc(-c2ccccc2-c2nnn[nH]2)cc2c1OCCCC2c1ccccc1 (stereo not shown) [Example 18, 1-(7-(2-(1H-tetrazol-5-yl)phenyl)-5-phenyl-2,3,4,5-tetrahydrobenzo[b]oxepin-9-yl)-3-(benzo[d]thiazol-2-yl)urea]",950
18,"O=C(Nc1ccc(F)cc1F)Nc1cc(-c2ccccc2-c2nnn[nH]2)cc2c1OCCCC2c1ccccc1 (stereo not shown) [Example 21, 1-(7-(2-(1H-tetrazol-5-yl)phenyl)-5-phenyl-2,3,4,5-tetrahydrobenzo[b]oxepin-9-yl)-3-(2,4-difluorophenyl)urea]",177
19,"Fc1ccc2oc(Nc3cc(-c4ccccc4-c4nnn[nH]4)cc4c3OCCCC4C3CC3)nc2c1 (stereo not shown) [Example 27, N-(7-(2-(1H-tetrazol-5-yl)phenyl)-5-cyclopropyl-2,3,4,5-tetrahydrobenzo[b]oxepin-9-yl)-5-fluorobenzo[d]oxazol-2-amine]",26.4
20,"Fc1cccc2oc(Nc3cc(-c4ccccc4-c4nnn[nH]4)cc4c3OCCCC4C3CC3)nc12 (stereo not shown) [Example 28, N-(7-(2-(1H-tetrazol-5-yl)phenyl)-5-cyclopropyl-2,3,4,5-tetrahydrobenzo[b]oxepin-9-yl)-4-fluorobenzo[d]oxazol-2-amine]",2.6
21,"Cc1ccc(NC(=O)Nc2cc(-c3ccccc3-c3nnn[nH]3)cc3c2OCCCC3C)cc1 (stereo not shown) [Example 31, 1-(7-(2-(1H-tetrazol-5-yl)phenyl)-5-methyl-2,3,4,5-tetrahydrobenzo[b]oxepin-9-yl)-3-(p-tolyl)urea]",70.8
22,"Cc1ccc(CC(=O)Nc2cc(-c3ccccc3-c3nnn[nH]3)cc3c2OCCCC3C)cc1 (stereo not shown) [Example 32, N-(7-(2-(1H-tetrazol-5-yl)phenyl)-5-methyl-2,3,4,5-tetrahydrobenzo[b]oxepin-9-yl)-2-(p-tolyl)acetamide]",419
